Measurements reported in paper PMC3440086, “Profiling Environmental Chemicals for Activity in the Antioxidant Response Element Signaling Pathway Using a High Throughput Screening Approach” (Environmental Health Perspectives, 2012).
Counter-ions that a name gives are not always drawn. Like-named read-outs stand apart in the source and are kept apart here.

Experiments:
[1] = tested on: antioxidant response element (ARE) signaling pathway; assay: ARE-bla β-lactamase reporter gene assay in HepG2 cells (qHTS); type: cell-based, human; conditions: for EC50: read-out: ARE-bla EC50; for Emax: read-out: ARE-bla Efficacy
[2] = tested on: Nrf2-dependent ARE transcriptional activity; assay: ARE-luc luciferase reporter gene assay in HepG2 cells (qHTS); type: cell-based; conditions: for EC50: read-out: ARE-luc EC50; for Emax: read-out: ARE-luc Efficacy
mutated ARE = type: cell-based; conditions: for activity in ARE-bla-mut assay (words): follow-up studies, up to 46 µM
[3] = Homo sapiens, HepG2, confirmation/follow-up studies, activation of ARE reporter as % of positive control (β-napthoflavone)
[4] = Homo sapiens, confirmation/follow-up studies, HepG2, 16 hr exposure, mean ± SD
[5] = primary qHTS screening, 0.59 nM to 92 µM
[6] = confirmation/follow-up studies, HepG2, mean ± SD
[7] = follow-up studies, up to 46 µM, listed as 1,10-phenanthroline monohydrate
[8] = confirmation/follow-up studies, HepG2, 16 hr exposure, mean ± SD
[9] = Homo sapiens, HepG2, confirmation/follow-up studies, […]
[10] = follow-up studies, up to 46 µM, listed as melphalan
[11] = confirmation/follow-up studies, activation of ARE reporter as % of positive control (β-napthoflavone)

SMILES	Emax [1, 3] [%]	EC50 [1, 4] [µM]	activity in ARE-bla assay (words) [1, 5]	Emax [2, 3] [%]	EC50 [2, 4] [µM]	ARE-bla mutant IC50 (mutated ARE; [6])	ARE-luc EC50 [2, 8]	further results
C/C=C1/C(=O)C[C@H]2[C@@H]3CCC4=CC(=O)CC[C@]4(C)[C@H]3CC[C@]12C [Guggulsterones E]	–	–	–	–	–	–	–	ARE-bla Efficacy [1]: 106; EC50 [1]: 5 ± 3.1 µM; ARE-luc Efficacy [2]: 115; EC50 [2]: 15.4 ± 2.6 µM; ARE-bla mutant IC50 (mutated ARE): inactive
COc1cc(/C=C/C(=O)CC(=O)/C=C/c2ccc(O)c(OC)c2)ccc1O [Curcumin]	21	3.2 ± 3.2	high-quality active	165	10.8 ± 0.7	inactive	–	activity in ARE-luc assay (words) [2, 5]: high-quality active
O.c1cnc2c(c1)ccc1cccnc12 [1,10-Phenanthroline monohydrate]	–	–	showed activity	–	–	inactive	inactive	activity in ARE-bla assay (words) ([1]; follow-up studies, up to 46 µM): inactive in all assays; activity in ARE-bla assay (words) [1, 7]: inactive across all assays; activity in ARE-luc assay (words) ([2]; follow-up studies, up to 46 µM): inactive in all assays; activity in ARE-luc assay (words) [2, 7]: inactive across all assays; activity in ARE-bla-mut assay (words) (mutated ARE): inactive in all assays; activity in ARE-bla-mut assay (words) (mutated ARE; listed as 1,10-phenanthroline monohydrate): inactive across all assays
Cc1ccc(O)c(N)c1 [2-Amino-4-methylphenol]	76	12 ± 4.8	–	90	24 ± 7.1	inactive	–	–
O=c1n(CC2CO2)c(=O)n(CC2CO2)c(=O)n1CC1CO1 (centres unmarked) [Teroxironum]	–	–	–	–	–	–	–	ARE-bla Efficacy [1]: 119; EC50 [1]: 5.9 ± 1.9 µM; ARE-luc Efficacy [2]: 1541; EC50 [2]: 27.1 ± 1.8 µM; ARE-bla mutant IC50 (mutated ARE): inactive
Oc1ccc(/C=C/c2cc(O)cc(O)c2)cc1 [resveratrol]	–	–	active	–	–	–	–	activity in ARE-luc assay (words) [2, 5]: active
CNc1ccc(O)cc1 [N-Methyl-p-aminophenol sulfate]	37	13.6 ± 3.2	–	202	24.6 ± 9.2	–	–	ARE-bla mutant IC50 (mutated ARE): inactive
CC(C)(c1ccc(O)cc1)c1ccc(O)cc1 [Bisphenol A]	48	12.5 ± 5.6	–	–	–	inactive	inactive	–
C=CC(=O)OCCOCCOCCOCCOC(=O)C=C [Tetraethylene glycol diacrylate]	53	9.5 ± 4.8	–	288	29.2 ± 2	inactive	–	–
Nc1cc(Cl)ccc1O [2-Amino-4-chlorophenol]	–	7 ± 1.8	–	175	6.3 ± 2.1	inactive	–	Emax [1, 9]: 72%
N[C@@H](Cc1ccc(N(CCCl)CCCl)cc1)C(=O)O [Melphalan, reference compound]	–	–	showed activity	–	–	inactive	inactive	activity in ARE-bla assay (words) ([1]; follow-up studies, up to 46 µM): inactive in all assays; activity in ARE-bla assay (words) [1, 10]: inactive across all assays; activity in ARE-luc assay (words) ([2]; follow-up studies, up to 46 µM): inactive in all assays; activity in ARE-luc assay (words) [2, 10]: inactive across all assays; activity in ARE-bla-mut assay (words) (mutated ARE): inactive in all assays; activity in ARE-bla-mut assay (words) (mutated ARE; listed as melphalan): inactive across all assays
O=c1cc(-c2ccccc2)oc2ccccc12 [Flavone]	80	2.4 ± 0.6	–	47	7.6 ± 0.5	inactive	–	–
Nc1ccc(Cl)cc1N [4-Chloro-o-phenylenediamine]	–	–	showed activity	–	27.2 ± 3.7	inactive	–	activity in ARE-bla assay (words) ([1]; follow-up studies, up to 46 µM): inactive; Emax [2, 9]: 111%
O=C1c2ccccc2C(=O)C1c1ccc2ccccc2n1 [D & C Yellow II]	–	–	–	–	–	–	–	EC50 [1, 8]: 0.7 ± 0.1 µM; ARE-bla Efficacy [1, 11]: 88%; EC50 [2, 8]: 1.2 ± 0.7 µM; ARE-luc Efficacy [2, 11]: 185%; ARE-bla mutant Efficacy (mutated ARE; confirmation/follow-up studies, normalized to DMSO (0%) and ARE-bla maximal β-napthoflavone response (100%)): 48%; activity in ARE-bla-mut assay (words) (mutated ARE): may exhibit autofluorescence
C[C@H](CCC(=O)[O-])[C@H]1CC[C@H]2[C@@H]3[C@H](O)C[C@@H]4C[C@H](O)CC[C@]4(C)[C@H]3C[C@H](O)[C@]12C.[Na+] [Sodium Cholate]	–	–	–	–	–	inactive	inactive	ARE-bla EC50 [1, 8]: inactive
Nc1cc(Cl)cc(Cl)c1 [3,5-Dichloroaniline]	–	–	–	–	–	inactive	inactive	ARE-bla EC50 [1, 8]: inactive
